Test results as given in US6589992B2, “Inhibiting collagen-induced platelet aggregation” (Parker Hughes Institute, priority 1999, dated 2003).
“Also recorded” adds a separate entry of the source.

What was measured:
PLCγ2 = assay: Collagen-induced PLCγ2 tyrosine phosphorylation in platelets (immunoprecipitation/Western blot); assay type: cell-based, human; conditions: 100 μM, 30 min pretreatment; 2 μg/mL collagen
Source text: The membrane was stripped and re-probed with antibodies raised against PLCγ2. An increase in the level of phosphorylated PLCγ2 was seen between 30 and 45 seconds following collagen stimulation.

platelets [1] = assay: Inositol-1,4,5-trisphosphate production in collagen-stimulated platelets; assay type: cell-based, human
Protocol: Collagen stimulation was terminated by the addition of ice-cold 20% perchloric acid. Inositol-1,4,5,-trisphosphate (Ins-1,4,5-P3) levels were measured by using a D-myo-[^3H]inositol-1,4,5-trisphosphate assay system purchased from Amersham (Arlington Heights, Ill.), as reported (Uckun et al., 1991) (FIG. 2B). This highly sensitive assay is based on the competition between nonradiolabeled Ins-1,4,5-P3 in the cellular extracts and a fixed quantity of a high specific activity [^3H] Ins-1,4,5-P3 tracer for a limited number of binding sites on a Ins-1,4,5-P3-specific and sensitive bovine adrenal binding protein (Uckun et al., 1991).
Platelets were stimulated at 37 degrees C. with 2 μg/ml collagen for various times. Activation was stopped by the addition of ice cold 20% perchloric acid. The amount of inositol 1,4,5-triphosphate production was measured using a detection kit from Amersham.

platelets [2] = assay: Thrombin-induced platelet aggregation (aggregometer); assay type: cell-based, human; conditions: thrombin 0.1 U/mL
Protocol: Platelet aggregation with respect to control was monitored in a Chronolog Model 560 Dual Chamber Platelet Aggregometer.
Controls were treated with vehicle (PBS supplemented with 1% DMSO) alone. The treated PRP samples were diluted 1:4 with sterile normal saline and platelets were stimulated with collagen (2 μg/mL or 5 μg/mL, Chronolog Inc., Philadelphia, Pa.) or thrombin (0.1 U/mL, Chronolog Inc., Philadelphia, Pa.) as agonists under stirred conditions. Platelet aggregation was monitored in a platelet aggregometer (Model 560 Dual Chamber-Instrument, Chronolog Ind., Philadelphia, Pa.) for 5 minutes.

mice [3] = assay: Toxicity of LFM-A13 in mice; conditions: mice N=160, 12.5 mg/kg to 100 mg/kg i.p.
Source text: For histopathologic studies, tissues were fixed in 10% neutral buffered formalin, dehydrated, and embedded in paraffin by routine methods.

[4] = Pharmacokinetics in mice (HPLC plasma levels); conditions: mouse, in vivo
Protocol: All collected blood samples were heparinized and centrifuged at 7,000xg for 5 minutes in a microcentrifuge to obtain plasma. The plasma samples were stored at −20° C. until analysis.
The analytical column was equilibrated and eluted under isocratic conditions utilizing a flow rate of 1.0 mL/min at ambient temperature. The wavelength of detection was set at 294 nm. Peak width, response time, and slit were set at >0.03 min, 0.55 sec, and […], respectively. […] Following centrifugation at 300xg for 5 minutes, the supernatant was used for HPLC analysis using a system comprised of a Hewlett Packard (HP) series 1100 instrument equipped with an automated electronic degasser, a quaternary pump, an autosampler, an automatic thermostatic column compartment, diode array detector and a computer with a Chemstation software program for data analysis (Chen and Uckun, 1999; Malaviya et al., 2000). All extraction procedures were carried out at room temperature.
The unweighed linear regression analysis of the standard curves was performed by using the CA-Cricket Graph III computer program, Version 1.0 (Computer Association, Inc., Islandia, N.Y.). […] Pharmacokinetic modeling and pharmacokinetic parameter estimations were carried out using the pharmacokinetics software, WinNonlin Program, Professional version 3.0 (Pharsight Inc., Mountain view, Calif.) (Chen and Uckun, 1999; Malaviya et al. 2000; Uckun et al., 1999).
The elimination half-life was estimated by linear regression analysis of the terminal phase of the plasma concentration time profile. The area under the concentration time curve (AUC) was calculated by the linear trapezoidal rule between the first (0 hours) and last sampling time plus C/k, where C is the concentration at the last sampling time and k is the elimination rate constant. The systemic clearance (CL) was determined by dividing the does by the AUC (Chen and Uckun, 199; Malaviya et al., 2000; Uckun et al., 1999).
A one-compartment, first order pharmacokinetic model was fit into the pharmacokinetic data. The numbers represent the average values estimated from the composite plasma concentration-time curve for pooled data. The mean±SEM values are indicated in parentheses. The values for the apparent volume of distribution (Vc) and systemic clearance (CL) were not corrected for bioavailability. t½=terminal elimination half-life; tmax=the time required to reach the maximum plasma drug concentration after i.p. administration.

mice [5] = assay: Platelet plug formation and clotting time after retro-orbital venupuncture in mice; assay type: in vivo; conditions: for clotting time % Control / Mean Clotting Time: C57BL/6 mice; for Mean Clotting Time: n = 3
Protocol: Mice were placed in a tube holder and tail bleeding was performed with a 2 mm cut from the protruding tail tip, the tail was placed vertically into 10 mL normal saline in a 37° C. water bath and bleeding times determined as previously described (Teng et al., 1997). Platelet plug formation and clotting times on the eye after retro-orbital venupuncture were evaluated using published methods (Sheu et al., 1995).
The blood of XID mice clotted approximately two minutes later than the CBA control mice. Following this pattern, blood from chronically treated mice also clotted two minutes later than control. […]

[6] = 40 mg/kg, after retroorbital venupuncture

SMILES: C/C(O)=C(\C#N)C(=O)Nc1cc(Br)ccc1Br [LFM-A13, α-cyano-β-hydroxy-β-methyl-N-(2,5-dibromophenyl)-propenamide]
- collagen-induced tyrosine phosphorylation of PLCγ2 (PLCγ2): no enhanced tyrosine phosphorylation of PLCγ2 was detected; also recorded: No phosphorylation of PLCγ2 was noted
- % control inositol 1,4,5-triphosphate production (peak response) (platelets [1]; 100 μM LFM-A13 alone, no collagen): 75 % control
- % control inositol 1,4,5-triphosphate production (peak response) (platelets [1]; 100 μM LFM-A13 and 2 μg/ml collagen): 75 % control
- Ins-1,4,5-P3 levels between 30 and 60 seconds after collagen stimulation (platelets [1]; 100 μM pretreatment): remained at baseline
- collagen-stimulated PI-PLC activity (platelets [1]; 100 μM, 30 min, 2 μg/ml collagen): inhibited collagen-stimulated PI-PLC activity
- Ins-1,4,5-P3 levels (platelets [1]; 100 μM, 30 min pretreatment, 30 seconds after collagen stimulation): 17.8±1.4 pmols/10^9 platelets
- inhibition at 100 µM (platelets [1]; Homo sapiens, Platelet, read-out: % inhibition of inositol 1,4,5-triphosphate production): 100%
- thrombin-induced platelet aggregation, PRP (platelets [2]; PRP treated 20 min or 24 hours): No significant effect
- effect on thrombin-induced platelet aggregation (platelets [2]; up to 1000 μM): No significant effect; also recorded: not impaired
- toxicity, single i.p. bolus (mice [3]): not toxic
- AUC ([4]; ip, 10 mg/kg): 66.3 ± 3 µM·h
- Cmax ([4]; ip, 10 mg/kg): 94 ± 8 µM
- AUC ([4]; ip, 20 mg/kg): 183 ± 14 µM·h
- Cmax ([4]; ip, 20 mg/kg): 243 ± 16 µM
- AUC ([4]; ip, 25 mg/kg): 308 ± 31 µM·h
- Cmax ([4]; ip, 25 mg/kg): 383 ± 35 µM
- AUC ([4]; ip, 40 mg/kg): 653 ± 47 µM·h
- Cmax ([4]; ip, 40 mg/kg): 640 ± 44 µM
- AUC ([4]; ip, 50 mg/kg): 1020 ± 31 µM·h
- Cmax ([4]; ip, 50 mg/kg): 940 ± 16 µM
- AUC ([4]; iv, 25 mg/kg): 384 ± 30 µM·h
- Cmax ([4]; iv, 25 mg/kg): 731 ± 22 µM
- clotting (eye clot) time (mice [5]; [6]): 2.6 ± 0.4 min
- local platelet plug (eye plug) formation time (mice [5]; [6]): 45 ± 4 s
- clotting time % Control (mice [5]; 25 mg/kg chronic 36 days): 231%
- Mean Clotting Time (mice [5]; 25 mg/kg chronic 36 days): 3.7 min
- clotting time % Control (mice [5]; 40 mg/kg acute 1 hour): 164%
- Mean Clotting Time (mice [5]; 40 mg/kg acute 1 hour): 2.6 min
